The structures appear in SMILES notation. Where a name gives a salt, the structure may show the parent alone.

For orientation: Ki means a measure of affinity in units of concentration, obtained from inhibition or displacement. Read a low Ki as higher affinity.

In the experiment the target is T1, sc-urokinase (Homo sapiens, UniProt P00749).
T1 construct: purchased Ribosepharm GmbH, Haan, Germany
Nature of the experiment: Determination of the urokinase-inhibiting activity (chromogenic substrate, Dixon). The format is biochemical. As to conditions: Pefachrome UK or Bz-βAla-Gly-Arg-pNA, 25° C., pH 8.0, mean from at least 3 determinations. The method, then:
Determination of the Urokinase-inhibiting Activity
To determine the inhibitory activity, 200 μl of Tris buffer (0.05 mol/l, containing the inhibitor, 0.154 mol/l of NaCl, 5% ethanol, pH 8.0), 25 μl of substrate (Pefachrome UK or Bz-βAla-Gly-Arg-pNA in H2O; Pentapharm Ltd., Basel, Switzerland) and 50 μl of sc-urokinase (Ribosepharm GmbH, Haan, Germany) were incubated at 25° C. After 3 min the reaction was stopped by the addition of 25 μl of acetic acid (50%) and the absorption was determined at 405 nm by means of a microplate reader (MR 50001 Dynatech, Denkendorf, Germany). The Ki values were determined according to Dixon by linear regression using a computer program. The Ki values represent the mean from at least 3 determinations.
The Ki values mentioned in Table 2 can be determined according to the above mentioned method.

The compound `CCOC(=O)N1CCN(C(=O)N(Cc2cccc(C(=N)N)c2)NS(=O)(=O)c2c(C(C)C)cc(C(C)C)cc2C(C)C)CC1` [Example 5, 1-Ethoxycarbonyl-4-[1-(3-(amino-imino-methyl)-benzyl)-2-(2,4,6-triisopropyl-benzenesulfonyl)-1-hydrazino-carbonyl]-piperazine hydrochloride] showed a Ki of 0.67 ± 0.18 µM. Then `CCOC(=O)N1CCN(C(=O)N(Cc2cccc(C(N)=NN)c2)NS(=O)(=O)c2c(C(C)C)cc(C(C)C)cc2C(C)C)CC1` [Example 18], with 25.6 ± 9.5 µM.

(Values after US6861435B2, “Urokinase inhibitors” (Pentapharm AG, priority 2001, dated 2005).)
